Structures can show the parent of a compound that is named as a salt. Where two headings read alike, the source gives them in different places.
Tests used:
[1] = 12-membered ring
[2] = rcm bond
human Factor XIa = human Factor XIa (Homo sapiens (Human), UniProt P03951); experiment: Factor XIa enzyme inhibition assay (chromogenic substrate S-2366); type: biochemical; details: purified human Factor XIa 25-200 pM, substrate S-2366, 50 mM HEPES pH 7.4
[3] = from C=CC[C@H](NC(=O)OC(C)(C)C)c1cc(-c2ccc(NC(=O)OC)cc2NC(=O)C(C=C)CC)ccn1, rcm bond, Grubbs II, microwave, DCE, 120.0 °C, 0.42 h

human Factor XIa, sequence (P03951 388-625): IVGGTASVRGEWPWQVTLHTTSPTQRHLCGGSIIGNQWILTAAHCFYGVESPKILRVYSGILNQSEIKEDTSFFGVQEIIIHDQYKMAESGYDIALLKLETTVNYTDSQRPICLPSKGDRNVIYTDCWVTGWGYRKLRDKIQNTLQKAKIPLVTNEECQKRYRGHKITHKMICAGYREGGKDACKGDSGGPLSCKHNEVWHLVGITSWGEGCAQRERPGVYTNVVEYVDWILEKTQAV
human Factor XIa, sequence (P03951 19-387 partner): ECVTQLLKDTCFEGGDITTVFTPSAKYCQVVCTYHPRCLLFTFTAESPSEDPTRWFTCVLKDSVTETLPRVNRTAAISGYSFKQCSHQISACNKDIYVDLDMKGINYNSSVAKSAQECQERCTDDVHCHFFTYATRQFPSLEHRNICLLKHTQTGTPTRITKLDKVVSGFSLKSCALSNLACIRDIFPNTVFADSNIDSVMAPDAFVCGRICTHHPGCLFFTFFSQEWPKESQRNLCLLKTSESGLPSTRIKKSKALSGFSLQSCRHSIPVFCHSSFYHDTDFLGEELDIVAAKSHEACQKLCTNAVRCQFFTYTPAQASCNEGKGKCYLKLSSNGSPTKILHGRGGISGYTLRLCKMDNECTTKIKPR

| Structure (SMILES) | Ki (human Factor XIa) [nM] | other results |
| --- | --- | --- |
| CCOC(=O)C1C/C=C/C[C@H](NC(=O)OC(C)(C)C)c2cc(ccn2)-c2ccc(NC(=O)OC)cc2N1 (stereo partly shown) |  | ring closure, isolated yield ([1]; from C=CCC(Nc1cc(NC(=O)OC)ccc1-c1ccnc([C@H](CC=C)NC(=O)OC(C)(C)C)c1)C(=O)OCC, rcm bond, Grubbs (as described before)): 47% |
| COC(=O)Nc1ccc(-c2ccnc([C@H](CCCO)NC(=O)OC(C)(C)C)c2)c(N)c1 |  | ring closure, isolated yield ([1]; the molecule shown is the open-chain precursor, other bond, phosgene, then TEA/DMAP, DCM, 3.3 mM, 2 steps): 57% |
| COC(=O)Nc1ccc2c(c1)NC(=O)C(C)/C=C/C[C@H](NC(=O)OC(C)(C)C)c1cc-2nnc1Cl (stereo partly shown) |  | ring closure, isolated yield ([1]; from C=CC[C@H](NC(=O)OC(C)(C)C)c1cc(-c2ccc(NC(=O)OC)cc2NC(=O)C(C)C=C)nnc1Cl, rcm bond, Grubbs II (0.4 eq), 1,2-dichloroethane, 4.7 mM, 120.0 °C, 0.5 h): 22% |
| COC(=O)Nc1ccc2c(c1)NC(=O)C/C=C/C(C)[C@H](NC(=O)OC(C)(C)C)c1cc-2ccn1 (stereo partly shown) |  | ring closure, yield after HPLC ([2]; from C=CCC(=O)Nc1cc(NC(=O)OC)ccc1-c1ccnc([C@@H](NC(=O)OC(C)(C)C)C(C)C=C)c1, 12-membered ring, Grubbs II, toluene, 9.0 mM, 160.0 °C, 0.33 h): 12% |
| COC(=O)Nc1ccc2c(c1)NC(=O)C/C=C/C[C@H](NC(=O)OC(C)(C)C)c1cc-2ccn1 |  | ring closure, isolated yield ([1]; from C=CCC(=O)Nc1cc(NC(=O)OC)ccc1-c1ccnc([C@H](CC=C)NC(=O)OC(C)(C)C)c1, rcm bond, Grubbs II (0.4 eq)/pTsOH, DCM, 4.0 mM, 40.0 °C, 3.0 h): 26% |
| COC(=O)Nc1ccc2c(c1)NC(=O)CC/C=C/C[C@H](NC(=O)OC(C)(C)C)c1cc-2cc(=O)[nH]1 |  | ring closure, yield after HPLC ([2]; from C=CCCC(=O)Nc1cc(NC(=O)OC)ccc1-c1cc([C@H](CC=C)NC(=O)OC(C)(C)C)[nH]c(=O)c1, 13-membered ring, Grubbs II, microwave, DCE, 18.9 mM, 120.0 °C, 0.5 h): 26% |
| COC(=O)Nc1ccc2c(c1)NC(=O)CC/C=C/C[C@H](NC(=O)OC(C)(C)C)c1nc-2cn1COCC[Si](C)(C)C |  | ring closure, yield after HPLC ([2]; from C=CCCC(=O)Nc1cc(NC(=O)OC)ccc1-c1cn(COCC[Si](C)(C)C)c([C@H](CC=CN)C(=O)OC(C)(C)C)n1, 13-membered ring): 42% |
| COC(=O)Nc1ccc2c(c1)NC(=O)[C@H](C)/C=C/C[C@H](NC(=O)OC(C)(C)C)c1cc-2ccn1 |  | ring closure, isolated yield ([1]; from C=CC[C@H](NC(=O)OC(C)(C)C)c1cc(-c2ccc(NC(=O)OC)cc2NC(=O)C(C)C=C)ccn1, rcm bond, Grubbs II (0.1 eq)/pTsOH, DCM, 4.0 mM, 40.0 °C, 6.0 h): 25%; ring closure, isolated yield ([1]; from C=CC[C@H](NC(=O)OC(C)(C)C)c1cc(-c2ccc(NC(=O)OC)cc2NC(=O)[C@H](C)C=C)ccn1, rcm bond, Grubbs II (0.2 eq)/pTsOH, DCM, 11.8 mM, 4.0 h): 71% |
| COC(=O)Nc1ccc2c(c1)NC(=O)[C@H](C)C=CC[C@H](NC(=O)OC(C)(C)C)c1nc-2cn1COCC[Si](C)(C)C |  | ring closure, isolated yield ([1]; from C=CC[C@H](NC(=O)OC(C)(C)C)c1nc(-c2ccc(NC(=O)OC)cc2NC(=O)[C@H](C)C=C)cn1COCC[Si](C)(C)C, rcm bond, Grubbs II (0.4 eq)/pTsOH, DCM, 10.0 mM, 40.0 °C, 21.5 h): 41% |
| C[C@@H]1/C=C/C[C@H](NC(=O)OC(C)(C)C)c2cn(COCC[Si](C)(C)C)c(n2)-c2ccc([N+](=O)[O-])cc2NC1=O |  | ring closure, isolated yield ([1]; from C=CC[C@H](NC(=O)OC(C)(C)C)c1cn(COCC[Si](C)(C)C)c(-c2ccc([N+](=O)[O-])cc2NC(=O)[C@H](C)C=C)n1, rcm bond, Grubbs II (0.287 mmol), DCM, 16.0 h): 56% |
| CCC1/C=C/C[C@H](NC(=O)OC(C)(C)C)c2cc(ccn2)-c2ccc(NC(=O)OC)cc2NC1=O (single isomer, unassigned; diastereomer a) |  | ring closure, isolated yield [1, 3]: 10% |
| CCC1/C=C/C[C@H](NC(=O)OC(C)(C)C)c2cc(ccn2)-c2ccc(NC(=O)OC)cc2NC1=O (single isomer, unassigned; diastereomer b) |  | ring closure, isolated yield [1, 3]: 16% |
| COC(=O)Nc1ccc2c(c1)NC(=O)[C@H](C)CCC[C@H](NC(=O)c1cncc(-c3cccc(Cl)c3F)c1)c1cc-2ccn1 [Example 75] | 36.5 |  |
| COC(=O)Nc1ccc2c(c1)NC(=O)CCCC(C)[C@H](NC(=O)c1nnn(-c3cccc(Cl)c3F)c1C)c1cc-2ccn1 (stereo partly drawn) [Example 88, Methyl N-[(14S)-14-[1-(3-chloro-2-fluorophenyl)-5-methyl-1H-1,2,3-triazole-4-amido]-13-methyl-9-oxo-8,16-diazatricyclo[13.3.1.0^2,7]nonadeca-1(19),2(7),3,5,15,17-hexaen-5-yl]carbamate] | 52.6 |  |
| Cc1c(C(=O)N[C@H]2CCC[C@@H](C)C(=O)Nc3cc(NC(=O)C(F)(F)F)ccc3-c3ccnc2c3)nnn1-c1cccc(Cl)c1F [Example 137, 1-(3-Chloro-2-fluorophenyl)-5-methyl-N-[(10R,14S)-10-methyl-9-oxo-5-(trifluoroacetamido)-8,16-diazatricyclo[13.3.1.0^2,7]nonadeca-1(19),2(7),3,5,15,17-hexaen-14-yl]-1H-1,2,3-triazole-4-carboxamide] | 547 |  |
| Cc1c(C(=O)N[C@H]2CCC[C@@H](C)C(=O)Nc3cc(NC(=O)OCF)ccc3-c3ccnc2c3)nnn1-c1cccc(Cl)c1F [Example 139, Fluoromethyl N-[(10R,14S)-14-[1-(3-chloro-2-fluorophenyl)-5-methyl-1H-1,2,3-triazole-4-amido]-10-methyl-9-oxo-8,16-diazatricyclo[13.3.1.0^2,7]nonadeca-1(19),2(7),3,5,15,17-hexaen-5-yl]carbamate] | 5.49 |  |
| Cc1c(C(=O)N[C@H]2CCC[C@@H](C)C(=O)Nc3cc(Nc4ccncn4)ccc3-c3ccnc2c3)nnn1-c1cccc(Cl)c1F [Example 151] | 17.3 |  |

| Structure (SMILES) | Ki (human Factor XIa) [nM] | other results |
| --- | --- | --- |
| CCOC(=O)CNc1ccc2c(c1)NC(=O)[C@H](C)CCC[C@H](NC(=O)c1nnn(-c3cccc(Cl)c3F)c1C)c1cc-2ccn1 [Example 156, Ethyl 2-{[(10R,14S)-14-[1-(3-chloro-2-fluorophenyl)-5-methyl-1H-1,2,3-triazole-4-amido]-10-methyl-9-oxo-8,16-diazatricyclo[13.3.1.0^2,7]nonadeca-1(19),2(7),3,5,15,17-hexaen-5-yl]amino}acetate] | 16.8 |  |
| Cc1c(C(=O)N[C@H]2CCC[C@@H](C)C(=O)Nc3cc(N)c(C(=O)O)cc3-c3ccnc2c3)nnn1-c1cccc(Cl)c1F [Example 158, (10R,14S)-5-Amino-14-[1-(3-chloro-2-fluorophenyl)-5-methyl-1H-1,2,3-triazole-4-amido]-10-methyl-9-oxo-8,16-diazatricyclo[13.3.1.0^2,7]nonadeca-1(19),2(7),3,5,15,17-hexaene-4-carboxylic acid] | < 5 |  |
| Cc1nnc(Nc2ccc3c(c2)NC(=O)[C@H](C)CCC[C@H](NC(=O)c2nnn(-c4cccc(Cl)c4F)c2C)c2cc-3ccn2)o1 [Example 159, 1-(3-Chloro-2-fluorophenyl)-5-methyl-N-[(10R,14S)-10-methyl-5-[(5-methyl-1,3,4-oxadiazol-2-yl)amino]-9-oxo-8,16-diazatricyclo[13.3.1.0^2,7]nonadeca-1(19),2(7),3,5,15,17-hexaen-14-yl]-1H-1,2,3-triazole-4-carboxamide] | 9.94 |  |
| Cc1c(C(=O)N[C@H]2CCC[C@H](C)C(=O)Nc3cc(-c4ccn[nH]4)ccc3-c3ccnc2c3)nnn1-c1cccc(Cl)c1F [Example 165, 1-(3-Chloro-2-fluorophenyl)-5-methyl-N-[(10S,14S)-10-methyl-9-oxo-5-(1H-pyrazol-5-yl)-8,16-diazatricyclo[13.3.1.0^2,7]nonadeca-1(19),2(7),3,5,15,17-hexaen-14-yl]-1H-1,2,3-triazole-4-carboxamide, TFA salt] | 5080 |  |
| Cc1c(C(=O)N[C@H]2CCC[C@@H](C)C(=O)Nc3cc(C(N)=O)ccc3-c3ccnc2c3)cnn1-c1cccc(Cl)c1F [Example 190, (10R,14S)-14-C-1-(3-Chloro-2-fluorophenyl)-5-methyl-1H-pyrazole-4-10-methyl-9-oxo-8,16-diazatricyclo[13.3.1.0^2,7]nonadeca-1(19),2(7),3,5,15,17-hexaene-5,14-diamido, TFA salt] | 6.65 |  |
| Cc1c(C(=O)N[C@H]2CCCCC(=O)Nc3cc(C(=O)N(C)C)ccc3-c3ccnc2c3)cnn1-c1cccc(Cl)c1F [Example 193, (14S)-14-C-1-(3-Chloro-2-fluorophenyl)-5-methyl-1H-pyrazole-4-5-N,5-N-dimethyl-9-oxo-8,16-diazatricyclo[13.3.1.0^2,7]nonadeca-1(19),2(7),3,5,15,17-hexaene-5,14-diamido, TFA salt] | 2980 |  |
| COC(=O)Nc1ccc2c(c1)NC(=O)[C@H](C)CCC[C@H](NC(=O)c1nnn(-c3c(F)ccc(Cl)c3F)c1C)c1nc-2c[nH]1 [Example 207] | 153 |  |
| COC(=O)Nc1ccc2c(c1)NC(=O)[C@H](C)CCC[C@H](NC(=O)c1cnn(-c3cccc(Cl)c3F)c1C)c1cc(OC)nc-2c1 [Example 227] | < 5 |  |
| COC(=O)Nc1ccc2c(c1)NC(=O)[C@@H](C)CCC[C@@H](NC(=O)c1cnn(-c3cccc(Cl)c3F)c1C)c1cc-2ncc1F [Example 232] | 4290 |  |
| COC(=O)Nc1ccc2c(c1)NC(=O)CCCC[C@H](NC(=O)c1cnn(-c3cccc(Cl)c3F)c1C)c1cc-2ccn1 [Example 234] | < 5 |  |
| COC(=O)Nc1ccc2c(c1)NC(=O)[C@H](C)CCC[C@H](NC(=O)c1cnn(-c3cccc(Cl)c3F)c1C)c1cc-2cnn1 [Example 246] | < 5 |  |
| COCCOC(=O)Nc1ccc2c(c1)NC(=O)[C@H](C)CCC[C@H](NC(=O)c1ncn(-c3cccc(Cl)c3F)c1C)c1cc-2ccn1 [Example 251] | < 5 |  |
| COC(=O)Nc1ccc2c(c1)NC(=O)[C@H](C)CCC[C@H](NC(=O)c1ncn(-c3cccc(Cl)c3F)c1C)c1cc-2cc(=O)[nH]1 [Example 256] | < 5 |  |
| COC(=O)Nc1ccc2c(c1)NC(=O)[C@H](C)CCC[C@H](NC(=O)c1ncn(-c3cccc(Cl)c3F)c1C)c1cc-2cc(OC)n1 [Example 257] | < 5 |  |
| COC(=O)Nc1ccc2c(c1)NC(=O)[C@H](C)CCC[C@H](NC(=O)c1cnn(-c3cccc(Cl)c3F)c1C)c1c[nH]c-2n1 [Example 262] | 13.6 |  |
| COC(=O)Nc1ccc2c(c1)NC(=O)[C@H](C)CCC[C@H](NC(=O)c1ncn(-c3cccc(Cl)c3F)c1C)c1c[nH]c-2n1 [Example 263] | 33.2 |  |

Reference: patent publication US10208068B2, “Macrocycles as factor XIa inhibitors” (BRISTOL-MYERS SQUIBB COMPANY, priority 2011, dated 2019)
